Test results published in US10179790B2 (THOMAS HELLEDAYS STIFTELSE FOR MEDICINSK FORSKNING, priority 2014, dated 2019).

Columns and labels:
MTH1 = MTH1 (Homo sapiens, UniProt P36639); assay: MTH1 enzymatic assay and IC50 value determination (malachite green, 96- and 384-well format); assay type: biochemical; conditions: hydrolysis of dGTP (100 μM), MTH1 6 nM, pyrophosphatase-coupled malachite green, 15 minutes at 22° C.
Summary of the method: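 MTH1 (6 nM) hydrolysed dGTP (100 μM) for 15 min at 22 °C in Tris-acetate buffer with Mg2+, DTT, Tween 20 and excess pyrophosphatase, 1% DMSO. Pi detected with malachite green at 630 nm. IC50 from nonlinear 4-parameter fit of 11–12-point dilution series.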

cancer cell = assay: Cell viability assay (resazurin); assay type: cell-based; conditions: 72 h; 3 days with compound, resazurin fluorescence; cell line not named
Procedure: The utility of the compounds of the present invention can be illustrated, for example, by their activity in vitro in the cancer cell clonogenic and/or viability assay described below. The link between activity in tumor cell clonogenic assay and anti-tumor activity in the clinical setting has been well established in the art (e.g. see ref Silverstini et al Stem Cells 1993, 11(6), 258-35).
Cells are seeded into 96 well plates (1000-3000 cells/well) in DMEM GlutaMAX™ or other suitable media dependent on cell line and incubated overnight in 5% CO2, 37° C. Thereafter cells are treated with compound or vehicle and left in incubator for 3 days until staining with resazurin. Cells are incubated in resazurin (diluted in suitable media) at 37° C. for 2 hours before measuring the fluorescence (Ex544/Em590).
The compounds to be tested are nano-dispensed in 11 concentrations, directly in 384-well cell plates, with a final DMSO concentration <1%. Cells are seeded in cell plates, pre-dispensed with compounds, 50 μl/well (600-1200 cells/well). After 3 days culture in 5% CO2, 37° C., resazurin diluted in PBS is added, 10 μl/well, and cells are incubated 3 hours before measuring fluorescence (Ex544/Em590).

| IC50 (MTH1) [nM] | IC50 (cancer cell) [nM] | SMILES |
| --- | --- | --- |
| < 200 | < 500 | CC#CCOC(=O)Nc1ccc(CCNc2cc(-c3cccc(Cl)c3C)nc(N)n2)cc1 [Example 123, but-2-ynyl N-[4-[2-[[2-amino-6-(3-chloro-2-methyl-phenyl)pyrimidin-4-yl]amino]ethyl]phenyl]carbamate] |
| < 200 | < 500 | Cc1c(Cl)cccc1-c1cc(NCCc2cccc(NC(=O)N3CCCC3)c2)nc(N)n1 [Example 152, N-[3-[2-[[2-amino-6-(3-chloro-2-methyl-phenyl)pyrimidin-4-yl]amino]ethyl]phenyl]pyrrolidine-1-carboxamide] |
| < 200 | < 500 | Cc1cccc(-c2cc(NCCNc3nccc(C(N)=O)n3)nc(N)n2)c1C [Example 16, 2-[(2-{[2-amino-6-(2,3-dimethylphenyl)pyrimidin-4-yl]amino}ethyl)amino]pyrimidine-4-carboxamide] |
| < 200 | < 500 | Cc1c(Cl)cccc1-c1cc(NCCNc2cccc(S(C)(=O)=O)c2)nc(N)n1 [Example 105, 6-(3-chloro-2-methyl-phenyl)-N4-[2-(3-methylsulfonylanilino)ethyl]pyrimidine-2,4-diamine] |
| < 200 | < 500 | Cc1c(Cl)cccc1-c1cc(NCCSCc2ccc(S(C)(=O)=O)cc2)nc(N)n1 [Example 176, 6-(3-chloro-2-methyl-phenyl)-N4-[2-[(4-methylsulfonylphenyl)methylsulfanyl]ethyl]pyrimidine-2,4-diamine] |
| < 200 | < 500 | Cc1c(Cl)cccc1-c1cc(NCCc2ccc(C(=O)OCC(O)CO)cc2)nc(N)n1 (centres unmarked) [Example 187, 2,3-dihydroxypropyl 4-[2-[[2-amino-6-(3-chloro-2-methyl-phenyl)pyrimidin-4-yl]amino]ethyl]benzoate] |
| < 200 | < 500 | Cc1c(Cl)cccc1-c1cc(NCCc2ccc(NC(=O)N3CCOCC3)cc2)nc(N)n1 [Example 118, N-[4-[2-[[2-amino-6-(3-chloro-2-methyl-phenyl)pyrimidin-4-yl]amino]ethyl]phenyl]morpholine-4-carboxamide] |
| < 200 | < 500 | Cc1c(Cl)cccc1-c1cc(NCCc2ccc(C(=O)N3CCCC3)cc2)nc(N)n1 [Example 90, [4-[2-[[2-amino-6-(3-chloro-2-methyl-phenyl)pyrimidin-4-yl]amino]ethyl]phenyl]-pyrrolidin-1-yl-methanone] |
| < 200 | < 500 | Cc1cccc(-c2cc(NCCNc3ccc(S(N)(=O)=O)c(C(F)(F)F)c3)nc(N)n2)c1C [Example 29, 4-[(2-{[2-amino-6-(2,3-dimethylphenyl)pyrimidin-4-yl]amino}ethyl)amino]-2-(trifluoromethyl)benzene-1-sulfonamide] |
| < 200 | < 500 | Cc1c(Cl)cccc1-c1cc(NCCCNc2cccc(S(C)(=O)=O)c2)nc(N)n1 [Example 110, 6-(3-chloro-2-methyl-phenyl)-N4-[3-(3-methylsulfonylanilino)propyl]pyrimidine-2,4-diamine] |
| < 200 | < 500 | Cc1cccc(-c2cc(NCCNc3ccc(S(C)(=O)=O)nc3)nc(N)n2)c1C [Example 13, 6-(2,3-dimethylphenyl)-4-N-{2-[(6-methanesulfonylpyridin-3-yl)amino]ethyl}pyrimidine-2,4-diamine] |
| < 200 | < 500 | Cc1c(Cl)cccc1-c1cc(NCCCOc2nccc(C(N)=O)n2)nc(N)n1 [Example 205, 2-(3-{[2-amino-6-(3-chloro-2-methylphenyl)pyrimidin-4-yl]amino}propoxy)pyrimidine-4-carboxamide] |
| < 200 | < 500 | Cc1nc2ccc(NCCNc3cc(-c4cccc(Cl)c4C)nc(N)n3)cc2s1 [Example 101, 6-(3-chloro-2-methyl-phenyl)-N4-[2-[(2-methyl-1,3-benzothiazol-6-yl)amino]ethyl]pyrimidine-2,4-diamine] |
| < 200 | < 500 | CCC(C)NC(=O)Nc1ccc(CCNc2cc(-c3cccc(Cl)c3C)nc(N)n2)cc1 (centres unmarked) [Example 116, 1-[4-[2-[[2-amino-6-(3-chloro-2-methyl-phenyl)pyrimidin-4-yl]amino]ethyl]phenyl]-3-sec-butyl-urea] |
| < 200 | < 500 | Cc1c(Cl)cccc1-c1cc(NCCc2ccc(NC(=O)OCC(C)(C)C)cc2)nc(N)n1 [Example 121, 2,2-dimethylpropyl N-[4-[2-[[2-amino-6-(3-chloro-2-methyl-phenyl)pyrimidin-4-yl]amino]ethyl]phenyl]carbamate] |
| < 200 | < 500 | Cc1cccc(-c2cc(NCCNc3ccccc3C(N)=O)nc(N)n2)c1C [Example 24, 2-[(2-{[2-amino-6-(2,3-dimethylphenyl)pyrimidin-4-yl]amino}ethyl)amino]benzamide] |

| IC50 (MTH1) [nM] | IC50 (cancer cell) [nM] | SMILES |
| --- | --- | --- |
| < 200 | < 500 | Cc1c(Cl)cccc1-c1cc(NCCc2ccc(C(N)=S)cc2)nc(N)n1 [Example 111, 4-[2-[[2-amino-6-(3-chloro-2-methyl-phenyl)pyrimidin-4-yl]amino]ethyl]benzenecarbothioamide] |
| < 200 | < 500 | CC1(C)Nc2cc(NCCNc3cc(-c4cccc(Cl)c4)nc(N)n3)ccc2OC1=O [Example 103, 6-[2-[[2-amino-6-(3-chlorophenyl)pyrimidin-4-yl]amino]ethylamino]-3,3-dimethyl-4H-1,4-benzoxazin-2-one] |
| < 200 | < 500 | CC(=O)Nc1ccc(CCNc2cc(-c3cccc(C)c3C)nc(N)n2)cc1 [Example 19, N-[4-(2-{[2-amino-6-(2,3-dimethylphenyl)pyrimidin-4-yl]amino}ethyl)phenyl]acetamide] |
| < 200 | < 500 | Cc1c(Cl)cccc1-c1cc(NCCOc2ccc(C(N)=O)cc2)nc(N)n1 [Example 201] |
| < 200 | < 500 | CCc1ccc(CCNc2cc(-c3cccc(Cl)c3C)nc(N)n2)cc1 [Example 191, 6-(3-chloro-2-methyl-phenyl)-N4-[2-(4-ethylphenyl)ethyl]pyrimidine-2,4-diamine] |
| < 200 | < 500 | Cc1c(Cl)cccc1-c1cc(NCCc2cccc(NC(=O)C(C)(C)C)c2)nc(N)n1 [Example 81, N-[3-(2-{[2-amino-6-(3-chloro-2-methylphenyl)pyrimidin-4-yl]amino}ethyl)phenyl]-2,2-dimethylpropanamide] |
| < 200 | < 500 | Cc1c(Cl)cccc1-c1cc(NCCc2ccc(C(N)=O)cc2)nc(N)n1 [Example 43, 4-(2-{[2-amino-6-(3-chloro-2-methylphenyl)pyrimidin-4-yl]amino}ethyl)benzamide] |
| < 200 | < 500 | Cc1c(Cl)cccc1-c1cc(NCCc2ccc(NC#N)cc2)nc(N)n1 [Example 124, [4-[2-[[2-amino-6-(3-chloro-2-methyl-phenyl)pyrimidin-4-yl]amino]ethyl]phenyl]cyanamide] |
| < 200 | < 500 | Cc1c(Cl)cc(Cl)cc1-c1cc(NCCc2ccc(C(N)=O)cc2)nc(N)n1 [Example 76, 4-(2-{[2-amino-6-(3,5-dichloro-2-methylphenyl)pyrimidin-4-yl]amino}ethyl)benzamide] |
| < 200 | < 500 | Cc1c(-c2cc(NCCc3ccc(S(N)(=O)=O)cc3)nc(N)n2)cc(Cl)c(Cl)c1Cl [Example 72, 4-(2-{[2-amino-6-(3,4,5-trichloro-2-methylphenyl)pyrimidin-4-yl]amino}ethyl)benzene-1-sulfonamide] |
| < 200 | < 500 | Nc1nc(NCCNc2ccc3c(c2)NC(=O)CO3)cc(-c2cccc(Cl)c2Cl)n1 [Example 38, 6-[(2-{[2-amino-6-(2,3-dichlorophenyl)pyrimidin-4-yl]amino}ethyl)amino]-3,4-dihydro-2H-1,4-benzoxazin-3-one] |
| < 200 | < 500 | Cc1c(Cl)cccc1-c1cc(NCCc2ccc(C(N)=O)c(F)c2)nc(N)n1 [Example 171, 4-[2-[[2-amino-6-(3-chloro-2-methyl-phenyl)pyrimidin-4-yl]amino]ethyl]-2-fluoro-benzamide] |
| < 200 | < 500 | Cc1c(Cl)cccc1-c1cc(NCCc2cccc(NC(=O)NC(C)(C)C)c2)nc(N)n1 [Example 149, 1-[3-[2-[[2-amino-6-(3-chloro-2-methyl-phenyl)pyrimidin-4-yl]amino]ethyl]phenyl]-3-tert-butyl-urea] |
| < 200 | < 500 | CCOC(=O)NC(=O)Nc1ccc(CCNc2cc(-c3cccc(Cl)c3C)nc(N)n2)cc1 [Example 115, ethyl N-[[4-[2-[[2-amino-6-(3-chloro-2-methyl-phenyl)pyrimidin-4-yl]amino]ethyl]phenyl]carbamoyl]carbamate] |
| < 200 | < 500 | Cc1c(Cl)cccc1-c1cc(NCCOc2nccc3occc23)nc(N)n1 [Example 200, 6-(3-chloro-2-methylphenyl)-N4-(2-{furo[3,2-c]pyridin-4-yloxy}ethyl)pyrimidine-2,4-diamine] |
